Patent publication US20050215551A1, “1-[2H-1-benzopyran-2-one-8-yl]- piperazine derivatives for the treatment of movement disorders” (SOLVAY PHARMACEUTICALS B.V., priority 2004, published 2005)
“Also recorded” adds a separate entry of the source. Read-outs that look alike come from different tables or passages of the source.

Assays:
DBA/2 mice [1] = experiment: Anticonvulsant activity: audiogenic seizures in DBA/2 mice; format: in vivo; settings: for effect on tonic phase of audiogenic seizures / effect on clonic phase of audiogenic seizures / effect on tonic and clonic phase of audiogenic seizures: 30 min after i.p. administration; for ED50: Mus musculus, ip, 0.5 h, 30 minutes after drug administration; for behavioural changes: all dosages tested
Text: DBA/2 mice weighing 6-12 g (22-26 days old; either sex, Harlan Italy Correzzana, Milano, Italy) are housed in groups of 8-10 under a 12-h light/dark cycle (lights on at 7:00 a.m.) with food and water available ad libitum. The experimental protocol is approved by University of Catanzaro Ethical Committee. All procedures are in compliance with the Nationals Institutes of Health Guide for Care and Use of Laboratory Animals (Publication No. 85-23, revised 1985) and European Communities Council Directive of 24 Nov. 1986 (86/609 EEC).
The experiments are performed according to the method previously described by De Sarro et al. (1984), Eur. J. Pharmacol., 104, 55-60. Compounds of the invention or vehicle (controls) are given intraperitoneally (i.p.) and orally (p.o.) as freshly sonicated solutions in methylcellulose 1%. For the […]; pretreatment time at 30 and 60 min., For oral treatment, all animals are pretreated either at 30 or 60 min using the compounds of the invention at doses of 0.1, 0.3, 3, 6 and 10 mg/kg p.o. At least 10 mice per dose are used. After pretreatment time, each mouse is placed under a hemispheric perspex dome (58 cm in diameter) and 1 min is allowed for habituation and assessment of locomotor activity. Animals are challenged with a 12-16 kHz sinusoidal tone at 109 dB. Seizure response is assessed by two independent observers. The sound evoked behaviour is coded using the following scale: 0=no response, 1=wild running, 2=clonus, 3=tonic flexor and/or extensor; 4=respiratory arrest, on the basis of the concordant opinion of the observers. […] The maximum response is recorded for each animal. Rectal temperature is recorded immediately prior to auditory testing using an Elektrolaboratoriet thermometer type T.E.3. Behavioral changes are observed during the period between drug administration and auditory testing. In these experiments separate vehicle-treated and drug-treated groups are used at each pretreatment time (15 min-60 min). Percentage of mice showing wild running, clonic or tonic phase and the duration of anticonvulsant activity are compared to control group and statistically analyzed.
Statistical comparison between groups of control and drug-treated DBA/2 mice is made using Fisher's exact probability test (incidence of the seizure phases). The percentage incidence of each phase of the audiogenic seizure is determined for each drug. These values are plotted against the corresponding doses by a computer construction of the dose-effect curves for calculation of ED50 (with 95% confidence limits). The ED50 values for each compound are calculated using a computer program of the method of Litchfield and Wilcoxon (1949). At least 32 animals are used to calculate each ED50 value.
For systemic injections and oral administrations, all compounds are given intraperitoneally (0.1 ml/10 g of body weight of the mouse) as a freshly prepared solution in methylcellulose 1%. In order to avoid the light sensitivity, weighing and handling are carried out under sodium vapor lamps and the substances are protected from light during the experiments.

DBA/2 mice [2] = experiment: Interaction studies in DBA/2 mice: Compound 1 + vehicle, sumatriptan or SB 258741 (audiogenic seizures); format: in vivo; settings: pre-treatment 3 mg/kg, i.p.; for effect of pre-treatment on the anti-epileptic activity (dose-response curve) of Compound 1: 5 min before Compound 1
Procedure: The experiments are performed according to the method previously described by De Sarro et al. (1984), Eur. J. Pharmacol., 104, 55-60. Compounds of the invention or vehicle (controls) are given intraperitoneally (i.p.) and orally (p.o.) as freshly sonicated solutions in methylcellulose 1%. For the i.p. treatment compounds of the invention are given at doses of 0.1, 0.3, 3, 10, 15, 20 and 30 mg/kg; pretreatment time at 30 and 60 min., For oral treatment, all animals are pretreated either at 30 or 60 min using the compounds of the invention at doses of 0.1, 0.3, 3, 6 and 10 mg/kg p.o. At least 10 mice per dose are used. After pretreatment time, each mouse is placed under a hemispheric perspex dome (58 cm in diameter) and 1 min is allowed for habituation and assessment of locomotor activity. Animals are challenged with a 12-16 kHz sinusoidal tone at 109 dB. Seizure response is assessed by two independent observers. The sound evoked behaviour is coded using the following scale: 0=no response, 1=wild running, 2=clonus, 3=tonic flexor and/or extensor; 4=respiratory arrest, on the basis of the concordant opinion of the observers. […] The maximum response is recorded for each animal. Rectal temperature is recorded immediately prior to auditory testing using an Elektrolaboratoriet thermometer type T.E.3. Behavioral changes are observed during the period between drug administration and auditory testing. In these experiments separate vehicle-treated and drug-treated groups are used at each pretreatment time (15 min-60 min). Percentage of mice showing wild running, clonic or tonic phase and the duration of anticonvulsant activity are compared to control group and statistically analyzed.

5-HT1A = target: T1, 5-HT1A (Rattus norvegicus, UniProt P19327); experiment: In vivo 5-HT1A agonism: lower lip retraction (LLR); settings: 60 minutes after oral administration
T1 construct: from tissue; host or cells: whole animal (in vivo behavioural test)
T1 sequence (P19327 whole entry): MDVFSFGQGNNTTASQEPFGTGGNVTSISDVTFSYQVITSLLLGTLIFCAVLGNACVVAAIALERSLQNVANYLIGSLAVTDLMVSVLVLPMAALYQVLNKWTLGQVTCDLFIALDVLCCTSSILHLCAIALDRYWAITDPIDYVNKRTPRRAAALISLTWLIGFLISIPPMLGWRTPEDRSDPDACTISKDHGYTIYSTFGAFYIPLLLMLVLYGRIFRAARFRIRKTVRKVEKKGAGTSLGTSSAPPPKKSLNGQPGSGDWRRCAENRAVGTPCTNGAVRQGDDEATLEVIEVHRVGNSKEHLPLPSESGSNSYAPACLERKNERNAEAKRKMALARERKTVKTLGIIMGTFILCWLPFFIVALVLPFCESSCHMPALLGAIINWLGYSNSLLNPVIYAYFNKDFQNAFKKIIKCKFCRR
Procedure: Lower lip retraction was measured according to the method described by Berendsen et al., (Pharmacol. Biochem. Behav. 33, (1989), 821-827).

[3] = i.p. administration, read-out: ED50 Clonic seizures
[4] = i.p. administration, read-out: ED50 Wild running
[5] = i.p. administration, read-out: ED50 Tonic extension

SMILES | effect on tonic phase of audiogenic seizures (DBA/2 mice [1]; 0.3, 1, 3, 10 mg/kg) | effect on clonic phase of audiogenic seizures (DBA/2 mice [1]; 0.3, 1, 3, 10, 15 and 20 mg/kg) | effect on tonic phase of audiogenic seizures (DBA/2 mice [1]; 15 and 20 mg/kg) | ED50 (DBA/2 mice [1]; read-out: ED50 Tonic extension, i.p. administration) [mg/kg] | ED50 (DBA/2 mice [1]; [3]) [mg/kg] | ED50 (DBA/2 mice [1]; [4]) [mg/kg] | behavioural changes (DBA/2 mice [1]; i.p. administration) | effect on tonic phase of audiogenic seizures (DBA/2 mice [1]; 15 mg/kg) | effect on clonic phase of audiogenic seizures (DBA/2 mice [1]; 1, 3, 10 and 15 mg/kg) | ED50 (DBA/2 mice [1]; [5]) [mg/kg] | effect of pre-treatment on the anti-epileptic activity (dose-response curve) of Compound 1 (DBA/2 mice [2]) | ED50 (5-HT1A) [mg/kg] | effect on tonic and clonic phase of audiogenic seizures (DBA/2 mice [1]; 0.3, 1, 3, 5 and 7,5 mg/kg) | effect on tonic and clonic phase of audiogenic seizures (DBA/2 mice [1]; 10 and 15 mg/kg) | potency in shifting the dose-response curve of Compound 1, compared (DBA/2 mice [2]; 5 min before)
CCCN(CCC)C1CCc2cccc(O)c2C1 (centres unmarked) [Compound 8-OH-DPAT, 8-hydroxy-2-(di-n-propylamino)tetralin] | did not significantly antagonized | did not significantly antagonized | able to significantly (P<0.01 and P<0.05) antagonize | 15 | > 20 | > 20 | At none of the dosages tested | – | – | – | – | – | – | – | –
Cc1cccc(S(=O)(=O)N2CCC[C@@H]2CCN2CCC(C)CC2)c1 [SB258741] | – | – | – | – | > 15 | > 15 | At none of the dosages tested | able to significantly (P<0.01) antagonize | did not significantly antagonize | ~12 | shift the dose-response curve of COMPOUND 1 to the right; also recorded: partly antagonized | – | – | – | –
O=C(NCCN1CCN(c2cccc3c2OC[C@H](CO)O3)CC1)c1ccc(F)cc1 [flesinoxan] | – | – | – | – | 9.37 | > 15 | At none of the dosages tested | – | – | 7.74 | – | 0.22 | did not significantly antagonized | able to significantly (P<0.0.1) antagonize | –
CNS(=O)(=O)Cc1ccc2[nH]cc(CCN(C)C)c2c1 [sumatriptan, reference compound] | – | – | – | – | – | – | – | – | – | – | shift the dose-response curve of COMPOUND 1 to the right; also recorded: partly antagonized | – | – | – | more potent than SB 258741
